Drawing on patent US20230382940A1, “ANTIVIRAL COMPOUNDS AND METHODS OF MAKING AND USING THE SAME” (Gilead Sciences, Inc., priority 2022, published 2023), this text covers EC50 for 15 molecules.

Usually pEC50 stands for the negative decadic logarithm of the EC50, by convention in mol/L.

In assay [1] the test system is Respiratory syncytial virus recombinant with luciferase (RSV-Luc5). In words: NHBE RSV-Luc5 384-well assay (EC50 RSVFLUC NHBE-384 v2), Example W. The class given is cell-based. The settings on record: human respiratory syncytial virus, 72 h, read-out: EC50 RSV FLUC NHBE 384 V2 (per Ex. W). An excerpt:
Example W: NHBE RSV-Luc5 384-Well Assay (EC50 RSVFLUC NHBE-384 v2)
Normal Human Bronchial Epithelial (NHBE) cells were purchased from Lonza (Walkersville, MD Cat #CC2540) and maintained in BEGM Bronchial Epithelial Cell Growth Medium BulletKit (Lonza CC-3170).
Cells were thawed, expanded, and were used for experiments at passage 2. Respiratory syncytial virus recombinant with luciferase (RSV-Luc5) (≥1×10^7 Infectious Units/mL (IU/mL) determined by TCID50) was purchased from Microbiologics (Saint Cloud, MN). Viral replication was determined in NHBE cells in the following manner.
Compounds are prepared in 100% DMSO in 384-well polypropylene plates (Greiner, Monroe, NC, Cat #784201) with 8 compounds per plate in grouped replicates of 4 at 10 serially diluted concentrations (1:3). The serially diluted compounds were transferred to low dead volume Echo plates (Labcyte, Sunnyvale, CA, Cat #LP-0200).
The test compounds were spotted to 384-well assay plates (Greiner, Monroe, NC, Cat #781091) at 200 nL per well using an Echo acoustic dispenser (Labcyte, Sunnyvale, CA). NHBE cells were harvested and suspended in BEGM Bronchial Epithelial Cell Growth Medium BulletKit and seeded to the pre-spotted assay plates at 5,000 cells per well in 30 μL. RSV-Luc5 virus was diluted in BEGM Bronchial Epithelial Cell Growth Medium BulletKit at 500,000 Infectious Units (IU) per mL and 10 μL per well was added to the assay plates containing cells and compounds, for an MOI of 1. The assay plates were incubated for 3 days at 37° C. and 5% CO2. At the end of incubation, One-Glo reagent (Promega, Madison, WI, Cat #E6120) was prepared. The assay plates and One-Glo reagent were equilibrated to room temperature for at least 15 minutes. 40 μL per well of One-Glo reagent was added and the plates were incubated at room temperature for 15 minutes before reading the luminescence signal on an EnVision multimode plate reader (Perkin Elmer, Waltham, MA). Remdesivir was used as positive control and DMSO was used as negative control. Values were normalized to the positive and negative controls (as 0% and 100% replication, respectively) and data was fitted using non-linear regression analysis by Gilead's dose response tool. The EC50 value for each compound was defined as the concentration reducing the viral replication by 50%.

Assay [2] relates to Human Rhinovirus 14 (HRV14). In words: H1-HeLa HRV-CTG 384-well assay, HRV14, Example X. Type of assay: cell-based. The settings on record: Rhinovirus B, 96 h; H1-HeLa cells, HRV14 MOI 1.0, 4 days, Celltiter-Glo; read-out: EC50 H1-HeLa_HRV 14_HRV-CTG 384-well Assay (per Ex. X). An excerpt: Example X: H1-HeLa HRV-CTG 384-Well Assay
H1-Hela cell line (ATCC, Manassas, VA, Cat #CRL-1958) was maintained in Dulbecco's […] (DMEM) (Corning, New York, NY, Cat #15-018CM) supplemented with 10% fetal bovine serum (FBS) (Hyclone, Logan, UT, Cat #SH30071-03), and 1× Penicillin-Streptomycin-L-Glutamine (Corning, New York, NY, Cat #30-009-CI). Cells were passaged 2 times per week to maintain sub-confluent densities and were used for experiments at passage 5-30. The Human Rhinovirus 1B (HRV1B) (ATCC, Manassas, VA, Cat #VR-1645), Human Rhinovirus 14 (HRV14) (ATCC, Manassas, VA, Cat #VR-284), and Human Rhinovirus 16 (HRV16) (ATCC, Manassas, VA, Cat #BR-283) was obtained through ATCC. Viral infection was monitored by determining viability of H1-HeLa cells as described below.
Test molecules are prepared in 100% DMSO in 384-well polypropylene plates (Greiner, Monroe, NC, Cat #784201) with 8 compounds per plate in grouped replicates of 4 at 10 serially diluted concentrations (1:3). The serially diluted compounds were transferred to low dead volume Echo plates (Labcyte, Sunnyvale, CA, Cat #LP-0200).
The test compounds were spotted to 384-well assay plates (Greiner, Monroe, NC, Cat #781091) at 200 nL per well using an Echo acoustic dispenser (Labcyte, Sunnyvale, CA). H1-HeLa cells were harvested and suspended in DMEM (supplemented with 2% FBS and 1× Penicillin-Streptomycin-L-Glutamine) and seeded to the pre-spotted assay plates at 5,000 cells per well in 30 μL. HRV1B, HRV14, and HRV16 was diluted in DMEM (supplemented with 2% FBS and 1× Penicillin-Streptomycin-L-Glutamine) at 97.1 million Infectious Units (IU) per mL, 151 million IU per mL and 221 million IU per mL respectively. 10 μL of virus per well was added to the assay plates containing cells and compounds, for an MOI of 0.5, 1.0, and 0.25 respectively. The assay plates were incubated for 4 days at 37° C. and 5% CO2. At the end of incubation, Celltiter-Glo (Promega, Madison, WI, Cat #G7573) was prepared. The assay plates and Celltiter-Glo reagent were equilibrated to room temperature for at least 15 minutes. 40 μL per well of Celltiter-Glo reagent was added and the plates were incubated at room temperature for 15 minutes before reading the luminescence signal on an EnVision multimode plate reader (Perkin Elmer, Waltham, MA). Rupintrivir was used as positive control and DMSO was used as negative control. Values were normalized to the positive and negative controls (as 0% and 100% replication, respectively) and data was fitted using non-linear regression analysis by Gilead's dose response tool. The EC50 value for each compound was defined as the concentration reducing viral replication by 50%.

pEC50: −log10 of the molar value.

Take `N#C[C@]1(COC(=O)OC2CCC2)O[C@@H](c2ccc3c(N)ncnn23)[C@H](O)[C@@H]1O` [Compound 17, ((2R,3S,4R,5S)-5-(4-aminopyrrolo[2,1-f][1,2,4]triazin-7-yl)-2-cyano-3,4-dihydroxytetrahydrofuran-2-yl)methyl cyclobutyl carbonate]: the pEC50 in assay [1] was 5.22; in assay [2], 4.73.
For `CCCCCCOC(=O)OC[C@@]1(C#N)O[C@@H](c2ccc3c(N)ncnn23)[C@H](O)[C@@H]1O` [Compound 19, ((2R,3S,4R,5S)-5-(4-aminopyrrolo[2,1-f][1,2,4]triazin-7-yl)-2-cyano-3,4-dihydroxytetrahydrofuran-2-yl)methyl hexyl carbonate], in that order: 5.15 and 5.15.
For `CCCCCOC(=O)OC[C@@]1(C#N)O[C@@H](c2ccc3c(N)ncnn23)[C@H](O)[C@@H]1O` [Compound 20, ((2R,3S,4R,5S)-5-(4-aminopyrrolo[2,1-f][1,2,4]triazin-7-yl)-2-cyano-3,4-dihydroxytetrahydrofuran-2-yl)methyl pentyl carbonate], in that order: 5.12 and 4.91.
For `N#C[C@]1(COC(=O)OC2CCCCC2)O[C@@H](c2ccc3c(N)ncnn23)[C@H](O)[C@@H]1O` [Compound 21, ((2R,3S,4R,5S)-5-(4-aminopyrrolo[2,1-f][1,2,4]triazin-7-yl)-2-cyano-3,4-dihydroxytetrahydrofuran-2-yl)methyl cyclohexyl carbonate], in that order: 5.16 and 4.63.
In the case of `CCOC(=O)OC[C@@]1(C#N)O[C@@H](c2ccc3c(N)ncnn23)[C@H](O)[C@@H]1O` [Compound 22, ((2R,3S,4R,5S)-5-(4-aminopyrrolo[2,1-f][1,2,4]triazin-7-yl)-2-cyano-3,4-dihydroxytetrahydrofuran-2-yl)methyl ethyl carbonate], the negative-log EC50 (pEC50) in assay [1] is 5.18; in assay [2], 4.70.
Turning to `N#C[C@]1(COC(=O)OC2CC2)O[C@@H](c2ccc3c(N)ncnn23)[C@H](O)[C@@H]1O` [Compound 23, ((2R,3S,4R,5S)-5-(4-aminopyrrolo[2,1-f][1,2,4]triazin-7-yl)-2-cyano-3,4-dihydroxytetrahydrofuran-2-yl)methyl cyclopropyl carbonate], the pEC50 in assay [1] is 5.11; in assay [2] it was 4.94.
For `N#C[C@]1(COC(=O)O[C@@H]2CCOC2)O[C@@H](c2ccc3c(N)ncnn23)[C@H](O)[C@@H]1O` [Compound 24, ((2R,3S,4R,5S)-5-(4-aminopyrrolo[2,1-f][1,2,4]triazin-7-yl)-2-cyano-3,4-dihydroxytetrahydrofuran-2-yl)methyl ((R)-tetrahydrofuran-3-yl) carbonate], in that order: 5.14 and 4.99.
For `CC[C@H](C)COC(=O)OC[C@@]1(C#N)O[C@@H](c2ccc3c(N)ncnn23)[C@H](O)[C@@H]1O` [Compound 28, ((2R,3S,4R,5S)-5-(4-aminopyrrolo[2,1-f][1,2,4]triazin-7-yl)-2-cyano-3,4-dihydroxytetrahydrofuran-2-yl)methyl ((S)-2-methylbutyl) carbonate], in that order: 5.03 and 5.06.
For `N#C[C@]1(COC(=O)OCc2ccccc2)O[C@@H](c2ccc3c(N)ncnn23)[C@H](O)[C@@H]1O` [Compound 29, ((2R,3S,4R,5S)-5-(4-aminopyrrolo[2,1-f][1,2,4]triazin-7-yl)-2-cyano-3,4-dihydroxytetrahydrofuran-2-yl)methyl benzyl carbonate], in that order: 4.96 and 5.09.
Consider `N#C[C@]1(COC(=O)OCC2CCCC2)O[C@@H](c2ccc3c(N)ncnn23)[C@H](O)[C@@H]1O` [Compound 30, ((2R,3S,4R,5S)-5-(4-aminopyrrolo[2,1-f][1,2,4]triazin-7-yl)-2-cyano-3,4-dihydroxytetrahydrofuran-2-yl)methyl (cyclopentylmethyl) carbonate], for which the results for the pEC50 in assay [1] and in assay [2] were 5.12 and 5.25, respectively.
For `CCC(CC)COC(=O)OC[C@@]1(C#N)O[C@@H](c2ccc3c(N)ncnn23)[C@H](O)[C@@H]1O` [Compound 31, ((2R,3S,4R,5S)-5-(4-aminopyrrolo[2,1-f][1,2,4]triazin-7-yl)-2-cyano-3,4-dihydroxytetrahydrofuran-2-yl)methyl (2-ethylbutyl) carbonate], in that order: 5.06 and 5.12.
For `N#C[C@]1(COC(=O)OCC2CC2)O[C@@H](c2ccc3c(N)ncnn23)[C@H](O)[C@@H]1O` [Compound 32, ((2R,3S,4R,5S)-5-(4-aminopyrrolo[2,1-f][1,2,4]triazin-7-yl)-2-cyano-3,4-dihydroxytetrahydrofuran-2-yl)methyl (cyclopropylmethyl) carbonate], in that order: 5.15 and 4.94.
The corresponding values for `N#C[C@]1(COC(=O)O[C@H]2CCOC2)O[C@@H](c2ccc3c(N)ncnn23)[C@H](O)[C@@H]1O` [Compound 33, ((2R,3S,4R,5S)-5-(4-aminopyrrolo[2,1-f][1,2,4]triazin-7-yl)-2-cyano-3,4-dihydroxytetrahydrofuran-2-yl)methyl ((S)-tetrahydrofuran-3-yl) carbonate] are 5.10 and 4.81.
Take `CCCOCCOC(=O)OC[C@@]1(C#N)O[C@@H](c2ccc3c(N)ncnn23)[C@H](O)[C@@H]1O` [Compound 34, ((2R,3S,4R,5S)-5-(4-aminopyrrolo[2,1-f][1,2,4]triazin-7-yl)-2-cyano-3,4-dihydroxytetrahydrofuran-2-yl)methyl (2-propoxyethyl) carbonate]: the negative-log EC50 (pEC50) in assay [1] was 5.19; in assay [2], 4.85.
Regarding `CC(C)(C)CCOC(=O)OC[C@@]1(C#N)O[C@@H](c2ccc3c(N)ncnn23)[C@H](O)[C@@H]1O` [Compound 35, ((2R,3S,4R,5S)-5-(4-aminopyrrolo[2,1-f][1,2,4]triazin-7-yl)-2-cyano-3,4-dihydroxytetrahydrofuran-2-yl)methyl (3,3-dimethylbutyl) carbonate], the pEC50 in assay [1] is 5.24; in assay [2], 4.91.
